Values of other authors as cited in patent publication US11083748B2 (priority 2003, dated 2021).

Assays:
[1] = in vivo, iv
[2] = tested on: patients; conditions: human, in vivo

Which solubility in water does the source give for `CC(C)(S)[C@@H](N)C(=O)O` [Penicillamine, beta,beta-dimethylcysteine] here?
The solubility in water was “freely soluble”.

With `O=C(O)CN(CCN(CC(=O)O)CC(=O)O)CC(=O)O` [EDTA, ethylenediamine tetraacetic acid] as the molecule, how does the “fraction of the drug remaining one hour following administration” value [1] read?
Its value is “one-half”.

What about the half-life [1] of the same molecule?
The half-life was 20 to 60 min.

For `O=C(O)C(S)C(S)C(=O)O` (stereo not shown) [Succimer, dimercaptosuccinic acid], which “patients with drug-induced elevations of liver transaminases (mild and transient)” value [2] is on record?
Its value is “up to 10%”.
